Test results: PubChem BioAssay (NCI)
Values joined by “and” are separate entries in the source; they are usually repeats but may differ in a detail not shown here. Identical values can stand only once.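 1) Cells in 96-well plates. 2) Compound, 48 h, 5 concentrations. 3) Linear interpolation between surrounding doses. 4) Unreached endpoint = highest concentration. GI50 is the concentration that inhibits growth by half. At the TGI there is no net growth.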

What was measured:
Experiment in all cases: NCI anticancer screen, dose series, 48 h
NCI-H522 lung = system: NCI-H522 lung
SR leukemia = system: SR leukemia
UACC-62 melanoma = system: UACC-62 melanoma
U251 CNS = system: U251 CNS
MDA-MB-231 breast = system: MDA-MB-231 breast
HCT-116 colon = system: HCT-116 colon
SK-MEL-28 melanoma = system: SK-MEL-28 melanoma
UO-31 renal = system: UO-31 renal
HOP-92 NSCLC = system: HOP-92 NSCLC
SNB-19 CNS = system: SNB-19 CNS

Structure (SMILES)	GI50 (NCI-H522 lung)	TGI (NCI-H522 lung)	GI50 (SR leukemia)	TGI (SR leukemia)	GI50 (UACC-62 melanoma)	TGI (UACC-62 melanoma)	GI50 (U251 CNS)	TGI (U251 CNS)	GI50 (MDA-MB-231 breast)	TGI (MDA-MB-231 breast)	GI50 (HCT-116 colon)	GI50 (SK-MEL-28 melanoma)	TGI (SK-MEL-28 melanoma)	GI50 (UO-31 renal)	TGI (UO-31 renal)	GI50 (HOP-92 NSCLC)	TGI (HOP-92 NSCLC)	GI50 (SNB-19 CNS)	TGI (SNB-19 CNS)	TGI (HCT-116 colon)
CC12CCC3C(CCC4Cc5[nH]c6ccccc6c5CC43C)C1CCC2O (stereo not drawn)	0.295 µM	5.73 µM	0.342 µM	1.32 µM	0.284 µM	2.35 µM	0.646 µM	> 48 µM	2.09 µM	7.16 µM	0.501 µM	0.813 µM	> 100 µM	4.37 µM	> 100 µM	> 100 µM	> 100 µM	2.89 µM	> 100 µM	
O=C[C@@H](CO)O[C@H](C=O)c1c[nH]c(=O)[nH]c1=O		282 µM		614 µM		219 µM		930 µM		389 µM			237 µM		287 µM		237 µM		813 µM	513 µM
Clc1ncnc(Cl)c1Cl		> 100 µM		> 100 µM		> 100 µM		> 100 µM		> 100 µM			> 100 µM		> 100 µM		> 100 µM		> 100 µM	> 100 µM
COc1c(C=O)c2c(c(OC)c1OC)-c1ccc(OC)c(=O)cc1[C@@H](NC(C)=O)CC2				> 100 µM		> 92.3 µM		> 25.5 µM		> 100 µM			> 100 µM		> 100 µM		7.18 µM		> 92.8 µM	1.05 µM
COc1ccc(C(=O)c2cc(OC)c(OC)c(OC)c2)cc1		0.238 µM		4.49 µM		> 9.77 µM		9.74 µM		> 100 µM			> 95.8 µM		61.9 µM		> 100 µM		> 32.7 µM	> 25.8 µM
Cc1c(N2CCCC2)cc2c(c1NC(=O)c1ccccc1Cl)C(C)(C)CC2(C)C		28.4 µM		38.1 µM		23.2 µM		27.6 µM		29.3 µM			33.1 µM		26.4 µM		24 µM		29.5 µM	22.8 µM
CCN1CCN(Cc2ccc(-c3cc4c(N[C@H](C)c5ccccc5)ncnc4[nH]3)cc2)CC1	0.154 µM and 0.462 µM	2.23 µM and > 10 µM	2.34 µM and 2.05 µM	6.17 µM and 4.92 µM	2.09 µM and 3.75 µM	5.36 µM and > 10 µM	1.84 µM and 2.85 µM	5.06 µM and > 10 µM	2.08 µM and 2.88 µM	8.3 µM and > 10 µM	2.8 µM and 2.87 µM	1.96 µM and 1.98 µM	3.93 µM and 4.26 µM	0.37 µM and 0.542 µM	8.95 µM and > 10 µM	0.167 µM and 0.523 µM	4.21 µM and > 10 µM	6.11 µM and 4.04 µM	29.7 µM and > 10 µM	14.4 µM and > 10 µM
Cc1c2cc[n+](C)cc2c(C)c2c1sc1ccccc12		2.4 µM		9.54 µM		4.25 µM		1.15 µM		11.2 µM			6.15 µM		> 90.7 µM		9.75 µM		2 µM	23.7 µM
F	4970 µM	> 6870 µM	> 6870 µM	> 6870 µM	1550 µM	3100 µM	2870 µM	> 6870 µM	2660 µM	> 6870 µM	2820 µM			1790 µM	6220 µM	1850 µM	> 6870 µM	6220 µM	> 6870 µM	> 6870 µM
COc1cc2c(cc1O)CC[C@@H]1[C@@H]2CC[C@]2(C)[C@@H](NCCN(C)C)CC[C@@H]12	0.108 µM	0.5 µM	0.0989 µM	0.437 µM	0.0994 µM	0.274 µM	0.135 µM	0.458 µM	0.0979 µM	0.391 µM	0.139 µM	0.0883 µM	0.262 µM	0.43 µM	0.889 µM	0.124 µM	0.742 µM	0.4 µM	0.966 µM	0.522 µM
COc1cccc2c1C(=O)C=CC2=O		5 µM		1.02 µM		25.3 µM		13.9 µM		4.76 µM			33.6 µM		28.9 µM		3.75 µM		29.3 µM	12.1 µM
C=CC[n+]1c(/C=C/C=C2\N(C)c3ccccc3C2(C)C)sc2ccc(OC)cc21	0.133 µM	2.6 µM	0.101 µM	7.12 µM	0.195 µM	2.65 µM	0.293 µM	14.4 µM	0.272 µM	1.65 µM	0.159 µM	0.464 µM	4.79 µM	1.53 µM	8.82 µM	0.201 µM	1.61 µM	0.289 µM	14.4 µM	11.9 µM
OC(c1cccc(-n2ccc(C(F)(F)F)n2)c1)c1cnccc1NC1CCCCCC1 (stereo not drawn)	1.76 µM	3.59 µM	1.79 µM	6.49 µM	1.74 µM	3.14 µM	1.66 µM	3.24 µM	1.69 µM	3.16 µM	1.79 µM	1.77 µM	3.2 µM	1.37 µM	2.7 µM	1.21 µM	2.53 µM	1.73 µM	3.24 µM	3.59 µM
Cc1ccc(S(=O)(=O)OC2CCN(C)CC2)cc1		46.5 µM		49.9 µM		> 100 µM		> 100 µM		> 100 µM			> 100 µM				42.3 µM		> 100 µM	> 100 µM
CC(C)[C@]12O[C@H]1[C@@H]1O[C@]13[C@]1(O[C@H]1C[C@H]1C4=C(CC[C@@]13C)C(=O)OC4)[C@@H]2O	0.0114 µM	0.157 µM and 0.0366 µM	0.00713 µM	0.0488 µM	0.011 µM	0.0241 µM and 0.026 µM	0.0379 µM	> 100 µM	0.0168 µM	0.116 µM	< 0.01 µM	0.0119 µM	0.0226 µM and 0.032 µM	0.0183 µM	> 100 µM	0.0201 µM	0.107 µM and 0.0808 µM	0.0627 µM	> 100 µM	> 100 µM
CC1(C)N=C(N)N=C(N)N1c1cccc(CCCCc2cccc(S(=O)(=O)F)c2)c1	2.55 µM	43.9 µM	0.355 µM	33.2 µM	0.281 µM	18 µM	0.456 µM	36 µM	6.6 µM	> 100 µM	0.445 µM	4.1 µM	21.7 µM	> 100 µM	> 100 µM	5.48 µM	94 µM	1.53 µM	> 77.7 µM	> 100 µM
COc1ccc2[nH]c(=O)c3c4ccccc4cn3c2c1	0.576 µM	2.44 µM	0.125 µM	0.842 µM	0.345 µM	1.4 µM	0.388 µM	1.55 µM	1.24 µM	5.85 µM	0.351 µM	0.663 µM	2.01 µM	0.689 µM	4.73 µM	2 µM	8.37 µM	0.95 µM	9.33 µM	1.38 µM
CCN(CC)CCOCC[C@H]1CC[C@H]2[C@@H]3[C@H](C)Cc4cc(OS(N)(=O)=O)ccc4[C@H]3CC[C@]12C	1.52 µM	3.39 µM	0.329 µM	1.42 µM			1.18 µM	2.59 µM	1.5 µM	3.03 µM	0.696 µM	1.27 µM	2.53 µM	1.54 µM	3.7 µM	1.39 µM	3.5 µM	1.71 µM	3.17 µM	2.08 µM
COc1ccc(-c2cc(-c3cc(Cl)ccc3Cl)nc3n[nH]c(N)c23)cc1	17.3 µM	49.3 µM	10.1 µM	52.5 µM	41.9 µM	> 100 µM	8.95 µM	> 100 µM	34 µM	> 100 µM	6.32 µM	26 µM	> 100 µM	27.9 µM	> 100 µM	22.3 µM	> 100 µM	31.8 µM	> 100 µM	29.3 µM
CCOC(=O)c1ccc2[nH]c(-c3ccc(S(=O)(=O)F)cc3)cc(=O)c2c1		39.4 µM		> 100 µM		76.2 µM		> 100 µM		> 100 µM			> 100 µM		> 100 µM		> 100 µM		> 100 µM	76.9 µM
CC[C@]12CCCN3CCc4c(n(c5ccccc45)C(=O)C1)[C@@H]32		7.2 µM		18 µM		> 100 µM		> 52.2 µM		> 86.3 µM			> 100 µM		> 100 µM		> 100 µM		> 100 µM	> 49.6 µM
CN(C)CCOc1ccc(-c2nc(-c3ccc4c(c3)CC/C4=N\O)c(-c3ccncc3)[nH]2)cc1	3.9 µM and 5.5 µM	9.59 µM and 21 µM	5.48 µM and 3.64 µM	16.6 µM and 14.5 µM	0.0177 µM and 0.0275 µM	2.55 µM and 0.876 µM	4.83 µM and 2.35 µM	9.15 µM and 4.69 µM	3.27 µM and 1.63 µM	7.26 µM and 4.88 µM	3.29 µM and 1.84 µM	0.0188 µM and 0.029 µM	3.26 µM and 1.85 µM	5.61 µM and 18.8 µM	10 µM and 45.6 µM	0.71 µM and 1.15 µM	4.29 µM and 24.1 µM	5.29 µM and 5.01 µM	10.8 µM and 9.56 µM	7.8 µM and 6.72 µM
CCNC(=O)[C@@H]1CCCN2C(=O)CC[C@H](NC(=O)[C@H](Cc3ccc(OP(=O)(O)O)cc3)NC(C)=O)C(=O)N12	> 25 µM	> 25 µM	> 25 µM	> 25 µM	> 25 µM	> 25 µM	> 25 µM	> 25 µM	> 25 µM	> 25 µM	> 25 µM	> 25 µM	> 25 µM	> 25 µM	> 25 µM			> 25 µM	> 25 µM	> 25 µM
Cc1ccc([N+](=O)[O-])cc1NC(=O)Nc1cccc(F)c1	2.64 µM	15.7 µM	5.63 µM	64.6 µM	4.55 µM	> 100 µM	3.82 µM	18.4 µM	13.3 µM	96.6 µM	3.53 µM	19.8 µM	> 100 µM	3.36 µM	17.6 µM	3.46 µM	15.2 µM	6.27 µM	97.1 µM	> 100 µM
COc1ccc2oc(=O)cc(C(c3ccc[nH]3)c3ccc[nH]3)c2c1	0.348 µM	5.88 µM		3.79 µM	0.152 µM	14 µM	0.11 µM	12.9 µM	0.109 µM	6.05 µM	0.328 µM	0.874 µM	14 µM	0.127 µM	11.9 µM	0.0985 µM	2.83 µM	0.132 µM	16.4 µM	10.6 µM
Nc1c(C(=O)c2cccc(CCCN3CCOCC3)c2)cnn1-c1ccc(F)cc1	> 25 µM	> 25 µM	> 25 µM	> 25 µM	> 25 µM	> 25 µM	> 25 µM	> 25 µM	> 25 µM	> 25 µM	> 25 µM	> 25 µM	> 25 µM	> 25 µM	> 25 µM	7.01 µM	> 25 µM	> 25 µM	> 25 µM	> 25 µM
C=C1C(=O)O[C@H]2[C@H]1CC/C(CNC(=O)Cc1c[nH]c3ccccc13)=C\CC[C@@]1(C)O[C@@H]21	0.365 µM	1.38 µM	0.314 µM	2.84 µM			2.52 µM	16.5 µM	3.87 µM	17.5 µM	0.533 µM			6 µM	19.3 µM	2.17 µM	5.25 µM	15 µM	35.2 µM	2.55 µM
CN(Cc1cnc2nc(N)nc(N)c2n1)c1ccc(C(=O)NC(CCC(=O)O)C(=O)O)cc1C(F)(F)F (stereo not drawn)		> 100 µM		1.24 µM				> 100 µM		> 100 µM			> 100 µM		> 100 µM		> 100 µM		> 100 µM	> 100 µM
Cc1ccc2c(c1)C(C)Cc1c(ncnc1-n1cnc3ccccc31)N2C (stereo not drawn)	0.204 µM	10.8 µM	0.0649 µM	11 µM			0.415 µM	15.9 µM	0.809 µM	18.2 µM	0.407 µM	12.3 µM	29 µM	0.939 µM	17.9 µM	6.76 µM	27.7 µM	0.537 µM	21 µM	11.9 µM
